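Test compounds were applied to cells in 96-well plates for 48 hours at 5 doses. The concentration for 50% growth inhibition is given as GI50.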 Active and inactive are the calls of the source. Rule as the data show it: active = GI50 up to about 1.1 µM and inactive = higher.
Assays:
Test in all cases: NCI anticancer screen, dose series, 48 h
TK-10 = tested on: TK-10
SN12C = tested on: SN12C
UACC-257 = tested on: UACC-257
HL-60 = tested on: HL-60
HOP-92 = tested on: HOP-92
MDA-MB-435 = tested on: MDA-MB-435
SF-539 = tested on: SF-539
DU-145 = tested on: DU-145
HCT-116 = tested on: HCT-116
COLO 205 = tested on: COLO 205
RXF 393 = tested on: RXF 393
CAKI-1 = tested on: CAKI-1
SK-MEL-5 = tested on: SK-MEL-5
OVCAR-4 = tested on: OVCAR-4
HCT-15 = tested on: HCT-15
BT-549 = tested on: BT-549
OVCAR-5 = tested on: OVCAR-5
SW-620 = tested on: SW-620
SF-268 = tested on: SF-268
MDA-MB-231 = tested on: MDA-MB-231
786-0 = tested on: 786-0
ACHN = tested on: ACHN
A498 = tested on: A498
K562 = tested on: K562
HOP-62 = tested on: HOP-62
HCC 2998 = tested on: HCC 2998
LOX IMVI = tested on: LOX IMVI
KM12 = tested on: KM12
PC-3 = tested on: PC-3
UACC-62 = tested on: UACC-62
SK-OV-3 = tested on: SK-OV-3
SNB-75 = tested on: SNB-75
CCRF-CEM = tested on: CCRF-CEM
MOLT-4 = tested on: MOLT-4
OVCAR-3 = tested on: OVCAR-3
NCI-H460 = tested on: NCI-H460
Hs-578T = tested on: Hs-578T
NCI-H23 = tested on: NCI-H23
SR = tested on: SR
NCI/ADR-RES = tested on: NCI/ADR-RES
MDA-N = tested on: MDA-N
T47D = tested on: T47D
RPMI-8226 = tested on: RPMI-8226
U-251 = tested on: U-251
MCF7 = tested on: MCF7
HT-29 = tested on: HT-29
SF-295 = tested on: SF-295
UO-31 = tested on: UO-31
EKVX = tested on: EKVX
IGROV-1 = tested on: IGROV-1
A549 = tested on: A549
M14 = tested on: M14
SK-MEL-28 = tested on: SK-MEL-28
SK-MEL-2 = tested on: SK-MEL-2
OVCAR-8 = tested on: OVCAR-8
SNB-19 = tested on: SNB-19
NCI-H226 = tested on: NCI-H226
NCI-H522 = tested on: NCI-H522
Malme-3M = tested on: Malme-3M

Measured: GI50

c1cc(-c2cscc2-c2ccsc2)cs1
29.4 µM: HCT-15
inactive: TK-10 88.5 µM | SN12C > 100 µM | UACC-257 58.2 µM | HL-60 30.4 µM | HOP-92 > 100 µM | MDA-MB-435 36.4 µM | SF-539 17.8 µM | DU-145 > 100 µM | HCT-116 40.5 µM | COLO 205 > 100 µM | RXF 393 28.4 µM | CAKI-1 > 100 µM | SK-MEL-5 31 µM | OVCAR-4 37.8 µM | BT-549 37.8 µM | OVCAR-5 53.2 µM | SW-620 57.9 µM | SF-268 58.2 µM | MDA-MB-231 > 100 µM | 786-0 72.1 µM | ACHN > 100 µM | A498 > 100 µM | K562 71.4 µM | HOP-62 26.5 µM | HCC 2998 27.4 µM | LOX IMVI 37.6 µM | KM12 14.8 µM | PC-3 27.5 µM | UACC-62 47.3 µM | SK-OV-3 > 100 µM | SNB-75 12.3 µM | CCRF-CEM 52.6 µM | MOLT-4 30.1 µM | OVCAR-3 14.4 µM | NCI-H460 43.9 µM | Hs-578T 17.4 µM | NCI-H23 25.7 µM | SR 27.5 µM | NCI/ADR-RES 37.7 µM | MDA-N 40.2 µM | T47D 69.7 µM | RPMI-8226 34.9 µM | U-251 > 100 µM | MCF7 30.5 µM | HT-29 > 100 µM | SF-295 83.4 µM | UO-31 72.9 µM | EKVX 41.3 µM | IGROV-1 34.5 µM | A549 43.6 µM | M14 31.3 µM | SK-MEL-28 98.4 µM | SK-MEL-2 4.65 µM

O=c1c2cc(Cl)ccc2[nH]c2cc(O)cc(O)c12
> 10 µM: HCT-15
inactive: OVCAR-8 > 10 µM | TK-10 > 10 µM | SN12C > 10 µM | UACC-257 5.41 µM | SNB-19 > 10 µM | HL-60 > 10 µM | HOP-92 > 10 µM | MDA-MB-435 > 10 µM | SF-539 > 10 µM | NCI-H226 1.61 µM | DU-145 > 10 µM | HCT-116 > 10 µM | COLO 205 > 10 µM | RXF 393 > 10 µM | CAKI-1 > 10 µM | SK-MEL-5 > 10 µM | OVCAR-4 > 10 µM | BT-549 > 10 µM | OVCAR-5 > 10 µM | SW-620 > 10 µM | SF-268 > 10 µM | MDA-MB-231 > 10 µM | 786-0 > 10 µM | ACHN > 10 µM | A498 > 10 µM | K562 > 10 µM | HOP-62 > 10 µM | HCC 2998 > 10 µM | KM12 > 10 µM | PC-3 > 10 µM | UACC-62 > 10 µM | SK-OV-3 > 10 µM | SNB-75 2.95 µM | CCRF-CEM > 10 µM | MOLT-4 > 10 µM | OVCAR-3 8.55 µM | NCI-H460 > 10 µM | Hs-578T > 10 µM | NCI-H23 9.02 µM | SR > 10 µM | NCI/ADR-RES > 10 µM | MDA-N > 10 µM | T47D > 10 µM | RPMI-8226 > 10 µM | NCI-H522 > 10 µM | U-251 > 10 µM | MCF7 > 10 µM | HT-29 > 10 µM | SF-295 > 10 µM | EKVX 4.12 µM | IGROV-1 > 10 µM | A549 > 10 µM | M14 > 10 µM | SK-MEL-28 > 10 µM | SK-MEL-2 > 10 µM | Malme-3M > 10 µM

CC(C)(CO)CNc1nc(N)nc(Cl)c1/C=N/O
inactive: OVCAR-8 31.6 µM | TK-10 35 µM | SN12C 72.4 µM | UACC-257 36.1 µM | HL-60 29.8 µM | HOP-92 19.7 µM | MDA-MB-435 43.9 µM | SF-539 30.6 µM | NCI-H226 22.6 µM | DU-145 31.4 µM | HCT-116 10.2 µM | COLO 205 62.7 µM | RXF 393 22.2 µM | CAKI-1 23.8 µM | SK-MEL-5 5.78 µM | OVCAR-4 34 µM | BT-549 23.6 µM | OVCAR-5 41.2 µM | SW-620 82.6 µM | SF-268 8.91 µM | MDA-MB-231 25.8 µM | 786-0 36.7 µM | ACHN 28.6 µM | A498 23.9 µM | K562 13.9 µM | HOP-62 30.9 µM | HCC 2998 71.1 µM | LOX IMVI 12.1 µM | KM12 84.5 µM | PC-3 49.5 µM | UACC-62 31.8 µM | SNB-75 50.9 µM | CCRF-CEM 23 µM | MOLT-4 17 µM | OVCAR-3 23 µM | NCI-H460 30 µM | Hs-578T 27 µM | NCI-H23 3.45 µM | SR 24.1 µM | NCI/ADR-RES 41.6 µM | MDA-N 41.2 µM | T47D 4.31 µM | RPMI-8226 15.2 µM | NCI-H522 25.8 µM | U-251 48.6 µM | MCF7 23.8 µM | HT-29 42.1 µM | SF-295 14.1 µM | UO-31 17.3 µM | EKVX 17.5 µM | IGROV-1 13 µM | A549 16.9 µM | SK-MEL-28 48.4 µM | SK-MEL-2 39.7 µM | Malme-3M 57.4 µM
61.7 µM: HCT-15

Source: ChEMBL document CHEMBL1201862, “PubChem BioAssay data set” (2004)
